Source: patent US20230174608A1, “Polypeptide Derivative Having Dual Receptor Agonistic Action and Use Thereof” (TIANJIN INSTITUTE OF PHARMACEUTICAL RESEARCH CO., LTD., priority 2020, published 2023)
Marks after values point to notes of the source that are not given here. Where a SMILES comes first, the peptide text is derived from it.

Assays:
[1] = test system: diet-induced obesity (DIO) mice; test: DIO mice, weight and blood glucose after multiple administrations at different doses; format: in vivo, C57BL/6N mice; conditions: for Fasting blood glucose (mmol/L) before the last administration / Blood glucose level (mmol/L) 0.5 h after glucose loading / Glycemic load reduction rate: Day 22; for Fasting blood glucose (mmol/L) before the last administration: fasted 16 h; for Blood glucose level (mmol/L) 0.5 h after glucose loading: glucose 1 g/kg intragastric 30 min after administration; for Glycemic load reduction rate: versus model control group; for Reduction rate of weight without fasting on day 21 compared to day 0: n=5
From the text: 40 C57BL/6N mice were purchased from Beijing Vital River Laboratory Animal Technology Co., Ltd. Mice in a model group (n=35) were fed with H10060 high-fat diets to obtain diet-induced obesity (DIO) models, mice in a blank control group (n=5) were fed with standard diets, and all the mice were fed for 36 weeks. On the day of the first administration, the mice in the model group were randomly divided into 7 groups according to their weights (within a range of 45-60 g), i.e., a model control group, positive control groups (semaglutide at doses of 10 nmol/kg and 30 nmol/kg, respectively), and test compound groups (dgc005 and dgc016 at doses of 10 nmol/kg and 30 nmol/kg, respectively), 5 mice in each group. The positive control drug and the test compounds were respectively subcutaneously injected into each mouse in the positive control groups and the test compound groups every day, saline was subcutaneously injected into each mouse in the blank control group and the model control group, and the administration was performed for 22 days (the administration volume for each group was 0.005 mL/g weight). The mice were weighed before each administration, and 72-h food intake was weighed every three days. The mice fasted for 16 h before the last administration, and 30 min after administration, a glucose solution (1 g/kg, the administration volume was 0.01 mL/g weight) was intragastrically administered to each mouse for glucose tolerance test. Blood glucose levels were determined 0.5 h after glucose loading.

GLP-1R = biological target: T1, GLP-1R (Homo sapiens, UniProt P43220); test: GLP-1 receptor-mediated cAMP production in vitro; format: cell-based; conditions: HEK293 cell line stably expressing GLP-1R
T1 construct: expressed in transfected cells
T1 sequence (P43220 24-463, species assumed): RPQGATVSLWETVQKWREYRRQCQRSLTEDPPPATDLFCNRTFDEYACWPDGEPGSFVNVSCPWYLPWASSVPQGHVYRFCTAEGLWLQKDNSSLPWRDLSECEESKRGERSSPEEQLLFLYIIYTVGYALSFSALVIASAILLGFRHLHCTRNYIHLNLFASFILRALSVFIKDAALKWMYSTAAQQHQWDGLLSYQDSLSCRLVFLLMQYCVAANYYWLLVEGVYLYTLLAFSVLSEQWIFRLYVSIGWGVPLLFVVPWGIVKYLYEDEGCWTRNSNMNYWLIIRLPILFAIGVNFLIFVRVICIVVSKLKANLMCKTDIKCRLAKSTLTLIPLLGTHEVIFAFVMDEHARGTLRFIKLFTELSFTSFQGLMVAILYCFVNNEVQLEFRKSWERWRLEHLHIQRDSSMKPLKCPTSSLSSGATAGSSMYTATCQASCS
Method in brief: (§1)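 HEK293 cells stably expressing human GLP-1R or GCGR are stimulated with compound for 30 min in the dark in serum-free medium with 0.5 mM IBMX, with test dilutions spanning 1 μM down to 10^−3 nM. cAMP is detected after a 60 min room-temperature reaction as the 665/615 nm ratio.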

GCGR = biological target: T2, GCGR (Homo sapiens, UniProt P47871); test: GC receptor-mediated cAMP production in vitro; format: cell-based; conditions: HEK293 cell line stably expressing GCGR
T2 construct: expressed in transfected cells
T2 sequence (P47871 26-477, species assumed): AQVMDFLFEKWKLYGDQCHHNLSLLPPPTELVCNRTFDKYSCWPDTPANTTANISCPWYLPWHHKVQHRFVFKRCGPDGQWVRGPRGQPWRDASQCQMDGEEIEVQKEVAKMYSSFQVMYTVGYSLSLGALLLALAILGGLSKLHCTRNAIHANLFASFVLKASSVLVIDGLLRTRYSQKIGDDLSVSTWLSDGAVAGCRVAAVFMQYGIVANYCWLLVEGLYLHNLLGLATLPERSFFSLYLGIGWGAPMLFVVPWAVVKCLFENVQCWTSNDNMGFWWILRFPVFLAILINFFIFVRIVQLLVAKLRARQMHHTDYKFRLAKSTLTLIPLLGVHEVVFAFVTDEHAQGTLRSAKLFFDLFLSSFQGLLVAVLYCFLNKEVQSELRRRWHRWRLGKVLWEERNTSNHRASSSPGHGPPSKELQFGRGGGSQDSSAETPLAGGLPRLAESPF
Method in brief: as §1

[2] = test system: glucose loaded normal mice; test: Glucose loading test on normal mice after single administration; format: in vivo, Kunming mice; conditions: for Blood glucose reduction rate (%) / Blood glucose level after glucose loading / Inhibition of the rise of blood glucose after glucose loading (in words): 30 nmol/kg single dose; for Blood glucose reduction rate (%): after glucose loading, versus model control group; for Blood glucose level after glucose loading: glucose 2.5 g/kg intragastric 60 min after administration, measured 30 min after loading; for Blood glucose level after glucose loading / Fasting blood glucose level: n=5; for Inhibition of the rise of blood glucose after glucose loading (in words): normal mice; for Fasting blood glucose level: normal mice fasted 6 h, 30 nmol/kg group
Method: The hypoglycemic action of each compound of Example 1 was assessed by a glucose loading test on normal mice after single administration.
Method: Kunming mice (male, with a weight of 20-22 g) were acclimated in a barrier environment animal room for 3 days, divided into a blank control group, a model control group, a positive control group, and test compound groups, 5 mice in each group, and fasted for 6 h. Saline was administered to each mouse in the blank control group and the model control group, the compounds and a positive control drug were respectively administered to each mouse in the test compound groups and the positive control group at a dose of 30 nmol/kg, and the positive control drug was semaglutide. 60 min after administration, glucose was intragastrically administered to each mouse in the model control group, the positive control group, and the test compound groups at a dose of 2.5 g/kg (0.01 mL·g^−1 weight), distilled water was administered to each mouse in the blank control group, and blood glucose levels were determined 30 min after glucose loading.

[3] = test system: diet-induced obesity (DIO) mice; test: Obese (DIO) model mice, 23 days of successive administration; format: in vivo, C57BL/6J Gpt mice; conditions: for Fasting blood glucose (mmol/L) before the last administration: fasted 16 h; for Fasting blood glucose (mmol/L) before the last administration / TC (total cholesterol) / TG (triglycerides): n=5; for Weight decreasing rate: 30 nmol/kg s.c. every day, without fasting before the last administration compared to day 1; for Examination of liver pathological section: HE stain, 2 animals; for TC (total cholesterol) / TG (triglycerides): after 23 days of administration
From the text: C57BL/6J Gpt mice (purchased from GemPharmatech (Jiangsu) Co., Ltd.) (6-8-week-old) were fed with H10060 high-fat diet (purchased from Beijing HFK Bioscience Co., Ltd.) to obtain diet-induced obesity (DIO) models, mice in a blank control group (n=5) were fed with standard diets, and all the mice were fed for 11 weeks after being purchased. One day before the first administration, the mice in the model group were randomly divided into 5 groups according to their weights (within a range of 39.5-49.5 g), i.e., a model control group, a positive control group, and test compound groups (dgc005, dgc016, and dgc020), respectively, 5 mice in each group, which were administered every day by subcutaneous injection. Saline was subcutaneously injected in the blank control group and the model control group every day. The administration was performed for 23 days. The positive control drug and the test compounds were administered at a dose of 30 nmol/kg, and the administration volume for each group was 0.005 mL/g weight. The mice were weighed before each administration, and 72-h food intake was weighed every three days. The mice fasted for 16 h before the last administration, fasting blood glucose levels were determined, blood was sampled from the orbital venous plexus to determine triglycerides and total cholesterol, and the liver was taken out for pathological section observation.
The liver of each C576L/6 mouse in the groups was fixed with 12% formaldehyde and prepared into a specimen, and the tissue block was repaired, dehydrated with graded alcohol, embedded in paraffin, stained with HE, and examined under a light microscope.

[4] = day 4 of administration, 30 nmol/kg s.c. daily
[5] = day 7 of administration, 30 nmol/kg s.c. daily
[6] = day 10 of administration, 30 nmol/kg s.c. daily
[7] = day 13 of administration, 30 nmol/kg s.c. daily

EC50 (GLP-1R)	EC50 (GCGR)	Structure (SMILES)	Fasting blood glucose (mmol/L) before the last administration ([1]; 10 nmol/kg s.c. daily)	Blood glucose level (mmol/L) 0.5 h after glucose loading ([1]; 10 nmol/kg s.c. daily)	Glycemic load reduction rate ([1]; 10 nmol/kg s.c. daily)	Reduction rate of weight without fasting on day 21 compared to day 0 ([1]; 10 nmol/kg s.c. every day)	Fasting blood glucose (mmol/L) before the last administration ([1]; 30 nmol/kg s.c. daily)	Blood glucose level (mmol/L) 0.5 h after glucose loading ([1]; 30 nmol/kg s.c. daily)	Glycemic load reduction rate ([1]; 30 nmol/kg s.c. daily)	Reduction rate of weight without fasting on day 21 compared to day 0 ([1]; 30 nmol/kg s.c. every day)	Blood glucose reduction rate (%) [2]	Blood glucose level after glucose loading [2]	Inhibition of the rise of blood glucose after glucose loading (in words) [2]	Fasting blood glucose level [2]	Fasting blood glucose (mmol/L) before the last administration ([3]; 30 nmol/kg s.c. daily, 23 days)	Weight decreasing rate [3]	Effect on triglycerides (in words) ([3]; 23 days, 30 nmol/kg s.c. daily)	Examination of liver pathological section ([3]; 23 days, 30 nmol/kg s.c. daily)	TC (total cholesterol) ([3]; 30 nmol/kg s.c. daily)	TG (triglycerides) ([3]; 30 nmol/kg s.c. daily)	further results
0.484 nM	1.16 nM	CCCCCCCCCCCCCCCC(=O)N[C@@H](CCC(=O)N[C@@H](CCC(=O)NCCCC[C@H](NC(=O)[C@H](C)NC(=O)[C@H](C)NC(=O)[C@H](CCCNC(=N)N)NC(=O)[C@H](CCC(=O)O)NC(=O)[C@H](CCC(=O)O)NC(=O)[C@H](CC(C)C)NC(=O)[C@H](Cc1ccc(O)cc1)NC(=O)[C@H](CCCCN)NC(=O)[C@H](CO)NC(=O)[C@H](Cc1ccc(O)cc1)NC(=O)[C@H](CC(=O)O)NC(=O)[C@H](CO)NC(=O)[C@@H](NC(=O)[C@H](Cc1ccccc1)NC(=O)[C@@H](NC(=O)CNC(=O)[C@H](CCC(N)=O)NC(=O)C(C)(C)NC(=O)[C@@H](N)Cc1c[nH]cn1)[C@@H](C)O)[C@@H](C)O)C(=O)N[C@@H](CCC(=O)O)C(=O)N[C@@H](Cc1ccccc1)C(=O)N[C@H](C(=O)N[C@@H](C)C(=O)N[C@@H](Cc1c[nH]c2ccccc12)C(=O)N[C@@H](CC(C)C)C(=O)N[C@@H](CCC(=O)O)C(=O)N[C@@H](C)C(=O)NCC(=O)NCC(N)=O)[C@@H](C)CC)C(=O)O)C(=O)O [dgc005] (HELM PEPTIDE1{H.[Aib].Q.G.T.F.T.S.D.Y.S.K.Y.L.E.E.R.A.A.K.E.F.I.A.W.L.E.A.G.G.[am]}|PEPTIDE2{[CCCCCCCCCCCCCCCC(=O)[*:2]].[gGlu].[gGlu]}$PEPTIDE1,PEPTIDE2,20:R3-3:R2$$$V2.0; N-terminus assumed)	5.34 ± 1.20 mmol/L	7.52 ± 0.77 mmol/L	28.52	18.41%	4.22 ± 2.13 mmol/L	7.82 ± 1.09 mmol/L	25.66	21.39%	60.59%	6.70 ± 1.88**^ mmol/L	equivalent to that of the positive control drug	3.96 ± 0.62 mmol/L	4.60 ± 0.34 mmol/L	27%	significantly reduce triglycerides (TGs)	no obvious pathological changes are seen in portal areas and interstitium	3.07 ± 0.50 mmol/L	0.58 ± 0.10**^#ΔΔ mmol/L	Effect on total cholesterol (in words) ([3]; 23 days, 30 nmol/kg s.c. daily): reduced total cholesterol (TC) in a certain extent; 72-h food intake [3, 4]: 2.50 g/mouse; 72-h food intake [3, 5]: 3.80 g/mouse; 72-h food intake [3, 6]: 4.20 g/mouse; 72-h food intake [3, 7]: 4.60 g/mouse
1.23 nM	0.342 nM	CCCCCCCCCCCCCCCC(=O)N[C@@H](CCC(=O)N[C@@H](CCC(=O)NCCCC[C@H](NC(=O)[C@H](C)NC(=O)[C@H](C)NC(=O)[C@H](CCCNC(=N)N)NC(=O)[C@H](CCC(=O)O)NC(=O)[C@H](CCC(=O)O)NC(=O)[C@H](CC(C)C)NC(=O)[C@H](Cc1ccc(O)cc1)NC(=O)[C@H](CCCCN)NC(=O)[C@H](CO)NC(=O)[C@H](Cc1ccc(O)cc1)NC(=O)[C@H](CC(=O)O)NC(=O)[C@H](CO)NC(=O)[C@@H](NC(=O)[C@H](Cc1ccccc1)NC(=O)[C@@H](NC(=O)CNC(=O)[C@H](CCC(N)=O)NC(=O)C(C)(C)NC(=O)[C@@H](N)Cc1c[nH]cn1)[C@@H](C)O)[C@@H](C)O)C(=O)N[C@@H](CCC(=O)O)C(=O)N[C@@H](Cc1ccccc1)C(=O)N[C@H](C(=O)N[C@@H](C)C(=O)N[C@@H](Cc1c[nH]c2ccccc12)C(=O)N[C@@H](CC(C)C)C(=O)N[C@@H](CCC(=O)O)C(=O)NCC(=O)NCC(N)=O)[C@@H](C)CC)C(=O)O)C(=O)O [dgc016] (HELM PEPTIDE1{H.[Aib].Q.G.T.F.T.S.D.Y.S.K.Y.L.E.E.R.A.A.K.E.F.I.A.W.L.E.G.G.[am]}|PEPTIDE2{[CCCCCCCCCCCCCCCC(=O)[*:2]].[gGlu].[gGlu]}$PEPTIDE1,PEPTIDE2,20:R3-3:R2$$$V2.0; N-terminus assumed)	4.68 ± 2.12 mmol/L	7.12 ± 0.61**^Δ mmol/L	32.32	17.56%	5.02 ± 2.34 mmol/L	7.48 ± 0.78 mmol/L	28.90	19.92%	59.88%	6.82 ± 1.78**^ mmol/L	equivalent to that of the positive control drug	3.66 ± 0.77 mmol/L	4.18 ± 0.40 mmol/L	29.3%	has a triglyceride reduction action	no obvious pathological changes are seen in portal areas and interstitium	3.32 ± 0.73 ^ mmol/L	0.75 ± 0.10**^ΔΔ mmol/L	72-h food intake [3, 4]: 3.30 g/mouse; 72-h food intake [3, 5]: 4.80 g/mouse; 72-h food intake [3, 6]: 6.10 g/mouse; 72-h food intake [3, 7]: 5.70 g/mouse
